Experimental findings from patent US20200060276A1, “THIAZOLE COMPOUND AND HERBICIDE” (OAT Agrio Co., Ltd., priority 2017, published 2020) are described below.

Holding throughout (type): in vivo
For assay [1], the system named is Echinochloa crus-galli (L.) P. Beauv. var. formosensis Ohwi. As to the kind of experiment: Test for Herbicidal Effect in Flooding Treatment (#2), ECHDG at 2-2.5 leaf stage. Conditions: flooding treatment at 2-2.5 leaf stage, dose 0.2 kg/ha, visual observation on day 21. The method, boiled down: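 Flooded muddy soil was seeded with the weed, and at 2–2.5 leaf stage compound in acetone/Tween 80 water was dropped on the water surface at 0.2 kg/ha. Plants were kept in a glasshouse and scored visually on day 21 from 0 (<10% growth inhibition) to 5 (≥90% or complete withering).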

A further assay has as its system Cyperus microiria. Put plainly: Test for Herbicidal Effect in Flooding Treatment (#1), CYMIC. Conditions: flooding treatment at seeding, dose 2 kg/ha, visual observation on day 21. The protocol: (#1) Test for Herbicidal Effect in Flooding Treatment: Styrol cups each having an opening diameter of 8 cm (about 52 cm^2) were respectively filled with soil (45 ml) which had been passed through a sieve (2 mm). Water (about 115 ml) was mixed with the soil such that the soil was flooded. After the soil stood still for 24 hours, Monochoria vaginalis, Echinochloa crus-galli (L.) P. Beauv. var. formosensis Ohwi, Cyperus difformis (umbrella sedge), and Scirpus juncoides were seeded. Each of the compounds of the present invention was dissolved in acetone, and the obtained product was then diluted with water containing Tween 80®. Each of the resultant chemical solutions was dropped on the entire surface of an associated one of treatment sections, so that each section was treated with 1 ml of the respective chemical solution (a dose of 2 kg/ha). After the treatment, the plants were grown in a glasshouse. On day 21, a survey was conducted on the herbicidal activity by visual observation, and evaluation was made according to the following criteria. 0: Growth inhibition effect is less than 10%. 1: Growth inhibition effect is equal to or greater than 10%, and less than 30%. 2; Growth inhibition effect is equal to or greater than 30%, and less than 50%. 3: Growth inhibition effect equal to or greater than 50%, and less than 70%. 4: Growth inhibition effect is equal to or greater than 70%, and less than 90%. 5: Growth inhibition effect is equal to or greater than 90%, or complete withering is achieved. ECHDG=Echinochloa crus-galli (L.) P. Beauv. var. formosensis Ohwi, MONVA=Monochoria vaginalis, SCIJU=Scirpus juncoides, CYMIC=Cyperus microiria.

Assay [2] concerns Echinochloa crus-galli (L.) P. Beauv. var. formosensis Ohwi. Put plainly: Test for Herbicidal Effect in Flooding Treatment (#1), ECHDG. Conditions: flooding treatment at seeding, dose 2 kg/ha, visual observation on day 21. Summed up: (§1)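 Sieved soil in cups was flooded and left 24 h before weed seeds were sown. Compounds in acetone, diluted with Tween 80-containing water, were dropped over the whole surface at 2 kg/ha. After 21 days in a glasshouse, growth inhibition was scored visually from 0 (<10%) to 5 (≥90% or complete withering).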

A further assay has as its system Scirpus juncoides. Put plainly: Test for Herbicidal Effect in Flooding Treatment (#1), SCIJU. Conditions: flooding treatment at seeding, dose 2 kg/ha, visual observation on day 21. Summed up:
as §1

On to `COc1cccc(CS(=O)(=O)c2ncc(Cl)s2)c1OC` [Compound 1C-124], for which, in assay [1], the “ECHDG (2-2.5L) #2 herbicidal effect (growth inhibition grade)” value is 4 (Growth inhibition effect is equal to or greater than 70%, and less than 90%). Besides, in the assay with Cyperus microiria, the “CYMIC #1 herbicidal effect (growth inhibition grade)” value is 5 (Growth inhibition effect is equal to or greater than 90%, or complete withering is achieved). Also, the “ECHDG #1 herbicidal effect (growth inhibition grade)” value in assay [2] is listed as 5 (Growth inhibition effect is equal to or greater than 90%, or complete withering is achieved). Moreover, in the assay with Scirpus juncoides, the “SCIJU #1 herbicidal effect (growth inhibition grade)” value is recorded as 5 (Growth inhibition effect is equal to or greater than 90%, or complete withering is achieved).
As to `CCOc1ccc(CS(=O)(=O)c2ncc(Cl)s2)cc1F` [Compound 1C-95], in assay [1], the “ECHDG (2-2.5L) #2 herbicidal effect (growth inhibition grade)” value was 3 (Growth inhibition effect equal to or greater than 50%, and less than 70%). In addition, the “CYMIC #1 herbicidal effect (growth inhibition grade)” value in the assay on Cyperus microiria is reported as 5 (Growth inhibition effect is equal to or greater than 90%, or complete withering is achieved). Moreover, the “ECHDG #1 herbicidal effect (growth inhibition grade)” value in assay [2] was 5 (Growth inhibition effect is equal to or greater than 90%, or complete withering is achieved). Further, the “SCIJU #1 herbicidal effect (growth inhibition grade)” value in the assay on Scirpus juncoides was 5 (Growth inhibition effect is equal to or greater than 90%, or complete withering is achieved).
`CCOc1ccc(CS(=O)(=O)c2ncc(Cl)s2)c(Cl)c1` [Compound 1C-92]: in assay [1], the “ECHDG (2-2.5L) #2 herbicidal effect (growth inhibition grade)” value was 5 (Growth inhibition effect is equal to or greater than 90%, or complete withering is achieved). Also, in the assay on Cyperus microiria, the “CYMIC #1 herbicidal effect (growth inhibition grade)” value was 5 (Growth inhibition effect is equal to or greater than 90%, or complete withering is achieved). Moreover, the “ECHDG #1 herbicidal effect (growth inhibition grade)” value in assay [2] is on record as 5 (Growth inhibition effect is equal to or greater than 90%, or complete withering is achieved). Further, in the assay with Scirpus juncoides, the “SCIJU #1 herbicidal effect (growth inhibition grade)” value is 5 (Growth inhibition effect is equal to or greater than 90%, or complete withering is achieved).
As for `CCCOc1cc(F)c(CS(=O)(=O)c2ncc(Cl)s2)c(F)c1` [Compound 1C-109], in assay [1], the “ECHDG (2-2.5L) #2 herbicidal effect (growth inhibition grade)” value was 4 (Growth inhibition effect is equal to or greater than 70%, and less than 90%). For the same compound, the “CYMIC #1 herbicidal effect (growth inhibition grade)” value with Cyperus microiria is listed as 5 (Growth inhibition effect is equal to or greater than 90%, or complete withering is achieved). The “ECHDG #1 herbicidal effect (growth inhibition grade)” value in assay [2] was 5 (Growth inhibition effect is equal to or greater than 90%, or complete withering is achieved). Also, the “SCIJU #1 herbicidal effect (growth inhibition grade)” value with Scirpus juncoides is reported as 5 (Growth inhibition effect is equal to or greater than 90%, or complete withering is achieved).
`COc1cc(F)ccc1CS(=O)(=O)c1ncc(Cl)s1` [Compound 1C-3]: the “ECHDG (2-2.5L) #2 herbicidal effect (growth inhibition grade)” value in assay [1] was 4 (Growth inhibition effect is equal to or greater than 70%, and less than 90%). The “CYMIC #1 herbicidal effect (growth inhibition grade)” value with Cyperus microiria is 5 (Growth inhibition effect is equal to or greater than 90%, or complete withering is achieved). Further, the “ECHDG #1 herbicidal effect (growth inhibition grade)” value in assay [2] is reported as 5 (Growth inhibition effect is equal to or greater than 90%, or complete withering is achieved). Moreover, the “SCIJU #1 herbicidal effect (growth inhibition grade)” value with Scirpus juncoides is reported as 5 (Growth inhibition effect is equal to or greater than 90%, or complete withering is achieved).
With `O=S(=O)(Cc1ccc(OC(F)(F)C(F)F)cc1)c1ncc(Cl)s1` [Compound 1C-116], the “ECHDG (2-2.5L) #2 herbicidal effect (growth inhibition grade)” value in assay [1] is 3 (Growth inhibition effect equal to or greater than 50%, and less than 70%). Besides, in the assay with Cyperus microiria, the “CYMIC #1 herbicidal effect (growth inhibition grade)” value is listed as 5 (Growth inhibition effect is equal to or greater than 90%, or complete withering is achieved). The “ECHDG #1 herbicidal effect (growth inhibition grade)” value in assay [2] was 5 (Growth inhibition effect is equal to or greater than 90%, or complete withering is achieved). Moreover, the “SCIJU #1 herbicidal effect (growth inhibition grade)” value in the assay with Scirpus juncoides is 5 (Growth inhibition effect is equal to or greater than 90%, or complete withering is achieved).
As to `COc1cc(CS(=O)(=O)c2ncc(Cl)s2)ccc1C` [Compound 1C-68], the “ECHDG (2-2.5L) #2 herbicidal effect (growth inhibition grade)” value in assay [1] was 4 (Growth inhibition effect is equal to or greater than 70%, and less than 90%). The “CYMIC #1 herbicidal effect (growth inhibition grade)” value with Cyperus microiria was 5 (Growth inhibition effect is equal to or greater than 90%, or complete withering is achieved). Also, the “ECHDG #1 herbicidal effect (growth inhibition grade)” value in assay [2] is on record as 5 (Growth inhibition effect is equal to or greater than 90%, or complete withering is achieved). Moreover, the “SCIJU #1 herbicidal effect (growth inhibition grade)” value with Scirpus juncoides was 5 (Growth inhibition effect is equal to or greater than 90%, or complete withering is achieved).
Regarding `CCOc1cc(CS(=O)(=O)c2ncc(Cl)s2)ccc1F` [Compound 1C-76], the “ECHDG (2-2.5L) #2 herbicidal effect (growth inhibition grade)” value in assay [1] was 4 (Growth inhibition effect is equal to or greater than 70%, and less than 90%). In the assay on Cyperus microiria, the “CYMIC #1 herbicidal effect (growth inhibition grade)” value is 5 (Growth inhibition effect is equal to or greater than 90%, or complete withering is achieved). In assay [2], the “ECHDG #1 herbicidal effect (growth inhibition grade)” value was 5 (Growth inhibition effect is equal to or greater than 90%, or complete withering is achieved). Further, the “SCIJU #1 herbicidal effect (growth inhibition grade)” value in the assay on Scirpus juncoides is listed as 5 (Growth inhibition effect is equal to or greater than 90%, or complete withering is achieved).
On to `CCOc1c(Cl)cc(Cl)c(Cl)c1CS(=O)(=O)c1ncc(Cl)s1` [Compound 1C-34], for which, in assay [1], the “ECHDG (2-2.5L) #2 herbicidal effect (growth inhibition grade)” value is 4 (Growth inhibition effect is equal to or greater than 70%, and less than 90%). For the same compound, the “CYMIC #1 herbicidal effect (growth inhibition grade)” value in the assay on Cyperus microiria was 5 (Growth inhibition effect is equal to or greater than 90%, or complete withering is achieved). For the same compound, the “ECHDG #1 herbicidal effect (growth inhibition grade)” value in assay [2] is 5 (Growth inhibition effect is equal to or greater than 90%, or complete withering is achieved). The “SCIJU #1 herbicidal effect (growth inhibition grade)” value with Scirpus juncoides was 5 (Growth inhibition effect is equal to or greater than 90%, or complete withering is achieved).
As for `COc1cc(F)c(CS(=O)(=O)c2ncc(Cl)s2)c(F)c1` [Compound 1C-90], the “ECHDG (2-2.5L) #2 herbicidal effect (growth inhibition grade)” value in assay [1] is given as 5 (Growth inhibition effect is equal to or greater than 90%, or complete withering is achieved). In addition, the “CYMIC #1 herbicidal effect (growth inhibition grade)” value with Cyperus microiria is recorded as 5 (Growth inhibition effect is equal to or greater than 90%, or complete withering is achieved). Besides, the “ECHDG #1 herbicidal effect (growth inhibition grade)” value in assay [2] is 5 (Growth inhibition effect is equal to or greater than 90%, or complete withering is achieved). Further, the “SCIJU #1 herbicidal effect (growth inhibition grade)” value with Scirpus juncoides is 5 (Growth inhibition effect is equal to or greater than 90%, or complete withering is achieved).
As to `COc1ccc(CS(=O)(=O)c2ncc(Cl)s2)cc1` [Compound 1C-87], the “ECHDG (2-2.5L) #2 herbicidal effect (growth inhibition grade)” value in assay [1] is 1 (Growth inhibition effect is equal to or greater than 10%, and less than 30%). In the assay with Cyperus microiria, the “CYMIC #1 herbicidal effect (growth inhibition grade)” value is given as 5 (Growth inhibition effect is equal to or greater than 90%, or complete withering is achieved). In addition, the “ECHDG #1 herbicidal effect (growth inhibition grade)” value in assay [2] was 5 (Growth inhibition effect is equal to or greater than 90%, or complete withering is achieved). The “SCIJU #1 herbicidal effect (growth inhibition grade)” value in the assay with Scirpus juncoides is 5 (Growth inhibition effect is equal to or greater than 90%, or complete withering is achieved).
On to `CC(C)Oc1cc(F)c(CS(=O)(=O)c2ncc(Cl)s2)c(F)c1` [Compound 1C-111], for which the “ECHDG (2-2.5L) #2 herbicidal effect (growth inhibition grade)” value in assay [1] is recorded as 5 (Growth inhibition effect is equal to or greater than 90%, or complete withering is achieved). In the assay with Cyperus microiria, the “CYMIC #1 herbicidal effect (growth inhibition grade)” value was 5 (Growth inhibition effect is equal to or greater than 90%, or complete withering is achieved). In assay [2], the “ECHDG #1 herbicidal effect (growth inhibition grade)” value is on record as 5 (Growth inhibition effect is equal to or greater than 90%, or complete withering is achieved). The “SCIJU #1 herbicidal effect (growth inhibition grade)” value in the assay on Scirpus juncoides is reported as 5 (Growth inhibition effect is equal to or greater than 90%, or complete withering is achieved).
Consider `COc1ccc(CS(=O)(=O)c2ncc(Cl)s2)cc1Cl` [Compound 1C-89], for which the “ECHDG (2-2.5L) #2 herbicidal effect (growth inhibition grade)” value in assay [1] is 3 (Growth inhibition effect equal to or greater than 50%, and less than 70%). Moreover, in the assay on Cyperus microiria, the “CYMIC #1 herbicidal effect (growth inhibition grade)” value was 5 (Growth inhibition effect is equal to or greater than 90%, or complete withering is achieved). Further, the “ECHDG #1 herbicidal effect (growth inhibition grade)” value in assay [2] is 5 (Growth inhibition effect is equal to or greater than 90%, or complete withering is achieved). Moreover, the “SCIJU #1 herbicidal effect (growth inhibition grade)” value in the assay on Scirpus juncoides was 5 (Growth inhibition effect is equal to or greater than 90%, or complete withering is achieved).
